# Measurements taken from a melting point compilation (Tetko et al.; mined from patent text by program, amines drawn as free bases though some values may be those of a salt).
row,Compound,melting point
1,CSc1nc(-c2nnn(C)n2)c(I)c(C(F)(F)F)n1,113 to 118 °C
2,CC(=O)C1CCC2C3CCC4CC(O)(c5ccccc5)CCC4(C)C3CCC12C (stereo unspecified),182 to 184 °C
3,CNC(=S)NN=C(CCCOC(=O)Nc1ccccc1)c1ccccc1,155 to 157 °C
4,CN1CCN(c2n[nH]c3cc(F)ccc23)CC1,164 to 166 °C
5,BrCCCCCCC1(CCCCCCBr)c2cc(Br)ccc2-c2ccc(Br)cc21,68 °C
6,COc1cccc(SCCF)c1S(N)(=O)=O,127 °C
7,FC(F)(F)c1cc(CBr)c(C(F)(F)F)cc1CBr,80 to 81 °C
8,O=C(COc1ccc(O)cc1)N1CCN(CC(O)Cn2c3ccccc3c3ccccc32)CC1 (stereo unspecified),155 °C
9,CCCCCCCCCCOCCCN=C=O,78 to 82 °C
10,COC(=O)c1cnc(N)c(N)c1,154 to 155 °C
11,CC(=O)NC1=C(N)C(=O)c2cc(C)c(C)cc2C1=O,212 to 216 °C
12,CCOC(=O)CC(C)Sc1nnc(S)s1 (stereo unspecified),107 to 108 °C
13,NC1CC(=O)N(Cc2ccccc2)C1=O (stereo unspecified),74 to 77 °C
14,CCC(=O)N1N=C(c2ccc(N)cc2)c2cc(C)ccc2CC1C (stereo unspecified),166 to 168 °C
15,CC(C)(C)c1cc(C(O)CN)cc(C(C)(C)C)c1O (stereo unspecified),137 to 140 °C
16,COc1cccc2c1nc(C(F)F)n2-c1nc(NC2CCN(C(=O)OC(C)(C)C)CC2)c([N+](=O)[O-])c(N2CCOCC2)n1,229 to 231 °C
17,CCCCCCCCCCOc1cc2c(cc1CCC(=O)O)C(=O)c1cc(C(=O)O)ccc1-2,218 to 220 °C
18,COc1cc2c(cc1OC)-c1c(C=O)c(C#N)cn1CC2,220 to 221 °C
19,CCOC(=O)c1cn(CC)c2nc3cc(Cl)c(F)cc3cc2c1=O,300 to 301 °C
20,CCOC(=O)c1ccc(I)nc1,48 to 49 °C
21,CCC12CCC3C4CCC(=O)C=C4CCC3C1CCC2OC(=O)c1ccccc1 (stereo unspecified),141 to 149 °C
22,COc1cc(C)c(C(=O)CCCCCCCCCCCO)c(O)c1OC,82 °C
23,Cc1cc(OC(C)(C)C(=O)O)c(C)c(Br)c1C,151 to 153 °C
24,COc1ccc(OCC#N)c(SCC#N)c1,53 to 54 °C
25,COc1cc([N+](=O)[O-])c(N)cc1Cl,128 to 129 °C
26,CCOC(=O)[C@@H]1CCCN1C(=O)C1=Cc2ccccc2CC1,55 to 57 °C
27,O=S1(=O)c2cccc3cccc(c23)N1CCN1CC=C(c2ccccc2)CC1,106 °C
28,COc1cc2nc(Cl)nc(N)c2c(OC)c1OC,138 to 140 °C
29,c1ccc(SCC2=NCCN2)cc1,84 to 85.6 °C

# Other lines, results leading:
row,melting point,Compound
1,218 to 220 °C,Cn1cc(-c2cccc(-n3ncc4cc(C(C)(C)C)cc(F)c4c3=O)c2CO)cc(Nc2ccc(C(C)(C)C(=O)O)cn2)c1=O
2,168 to 170 °C,CCOC(c1ccc(Cl)c2nc3n(c12)CCCN3c1ccc(OC)nc1C)C(F)(F)F (stereo unspecified)
3,115 °C,Cc1nc2c(OCc3c(Cl)ccc(S(=O)(=O)N4CCC[C@H]4C(=O)NCCCNC(=O)c4ccc(C=NN)cc4)c3Cl)cccn2c1Cl
4,224 to 225 °C,O=C(Cn1c(-c2ccc(C(F)(F)F)cc2)nc2cccnc21)NCc1ccccc1
5,234 to 236 °C,O=[N+]([O-])c1cc(C(F)(F)F)ccc1Sc1nc(-c2ccccc2)c(-c2ccccc2)[nH]1
6,64 °C,CN(C)CCNC(=O)c1cccc(-c2nnc(CSCCOc3ccccc3)o2)c1
7,141 to 142 °C,COc1cnc2c(-c3cccc(C(F)(F)F)c3)ccc(C)c2n1
8,81 to 85 °C,COc1ccc(S(=O)(=O)C2(Cc3ccccc3)SC(=O)N(CC(=O)NO)C2=O)cc1 (stereo unspecified)
9,200 to 205 °C,CNc1ccc(-c2nc(N3CCOCC3)c3sc(C(C)(C)Nc4ncc(C(=O)NO)cn4)cc3n2)cn1
10,71 to 72 °C,COc1cc(O)cc2c1-c1c(O)cccc1C2=O
11,126 to 129 °C,N#CCCc1cccc2c1N(Cc1cccc(/C=C/c3ccc4ccccc4n3)c1)CC2
12,108 to 110 °C,CCOC(=O)N[C@@H]1Cc2ccccc2[C@H]1Nc1ccccc1C(=O)OC (relative stereo)
13,163 to 169 °C,COC(=O)C(CSc1ccccc1)N1CC(NC(=O)C(=NO)c2ccccc2)C1=O (stereo unspecified)
14,68 to 70 °C,COCCOc1cccc2c(Nc3ccccc3C)c(C(=O)C(C)C)cnc12
15,203 to 204 °C,O=C1NC(=S)SC1=Cc1cccc(Cl)c1Cl
16,168 to 169 °C,CCOC(=O)C1=C(C)N(Cc2ccccc2)C(C)=C(C(=O)OCC)C1c1ccc(Br)cc1
17,206 to 207 °C,COc1ccc(Cl)cc1-n1c(-c2cc(C(F)(F)F)cc(C(F)(F)F)c2)n[nH]c1=O
18,191 to 192 °C,Clc1cc(Cl)c2cccc3c2c1N=C3NCCCCCn1ccnc1
19,200 to 202 °C,Cc1cc(-c2c[nH]cn2)ccc1N=CNC#N
20,150 to 152 °C,COC(=O)c1sccc1OCC(O)CN1CCC(O)(c2ccccc2)CC1 (stereo unspecified)
21,232 °C,O=C(O)Cc1cc(C(=O)C=Cc2ccc(Cl)cc2Cl)ccc1O

row,melting point,Compound
1,132 °C,CCOC(=O)c1ncc(Cn2c(NC3CCN(C(=O)OCC)CC3)nc3ccccc32)o1
2,169 to 170 °C,CN(C)Cc1ccc(OCC(=O)N2CCN(c3ccc(N4C[C@H](CNC(=S)C5CC5)OC4=O)cc3F)CC2)cc1
3,251 to 252 °C,O=S(=O)(Nc1ccc(-c2nn(S(=O)(=O)c3ccccc3)c3c2Cc2ccccc2-3)cc1)c1ccccc1
4,167 to 168 °C,N#Cc1ccc(NC(=O)c2cccc(OCc3ccc(C(F)(F)F)cc3)c2)cc1
5,190 to 192 °C,CC(C)[C@H](N)C(=O)OCc1nc2c(N)nc3ccccc3c2n1CC(C)(C)O
6,125 to 126 °C,CCC(C(=O)O)C1=NC(c2ccccc2)(c2ccccc2)CO1 (stereo unspecified)
7,151 to 152 °C,O=C(CBr)c1cccc(Nc2ccc3ccccc3n2)c1
8,105 to 106 °C,CCCCc1nc(Cl)c(C(=O)OC(C)C)n1Cc1ccc2oc(-c3ccccc3-c3nnn[nH]3)c(Br)c2c1
9,189 °C,CC(C)(C)OC(=O)Nc1ccc(Nc2nc(-c3ccc4cc(OCc5ccccc5)ccc4c3)cc3ccnn23)cc1
10,177 to 178 °C,CC(=O)Oc1c(C)c(C)c2c(c1C)C(=O)CC(C)(COc1ccc(N)cc1)O2 (stereo unspecified)
11,90 °C,Cc1cc2c(s1)Nc1ccccc1N=C2N1CCN[C@@H](CO)C1
12,172 to 175 °C,Cc1c(CO)nc2c(OCc3ccccc3)cccn12
13,224 to 228 °C,C=CCc1c(O)ccc2c1ccc(=O)n2CC=C(C)C
14,167 to 168 °C,N#Cc1c(NC(=O)C2CCCCC2)sc(-c2ccccc2)c1Br
15,244 to 249 °C,Cc1nc2c(-c3cccc(N4CCC(N5CCCC5)CC4)c3)cnn2c(N)c1-c1ccc(F)cc1
16,184 °C,CC(=NNc1ccc(C(F)(F)F)cc1)C(=O)NCc1ccc(Cl)nc1
17,132 to 134 °C,O=C(O)CCCC=Cc1nn(-c2ccc(Cl)cc2)c2c1CCC2
18,93 to 94 °C,CCCOc1cccc(C=C(C=O)C(C=O)=Cc2cccc(OCCC)c2)c1
19,120 to 123 °C,CCC(C)(C)c1ccc(OCCCNC(=O)c2cc(N)c3ccccc3c2O)c(C(C)(C)CC)c1
20,165 to 168 °C,O=C1Nc2ccc(-c3cccc(Cl)c3)cc2C2(CCCCC2)O1
21,102 to 105 °C,c1cc(-c2nccs2)cc(-n2cnc3cc(-c4ccoc4)ccc32)c1
